Laboratory results from patent publication US10889825B2, “Compositions and methods thereof for down-regulation of genes following oral delivery of an RNAi molecule bioencapsulated within plant cells” (THE TRUSTEES OF THE UNIVERSITY OF PENNSYLVANIA, priority 2015, dated 2021).

System: Helicoverpa armigera
Experiment: gossypol tolerance test, larvae on artificial diet supplemented with gossypol
Type: in vivo
Conditions: third-instar larvae
Protocol: Cotton bollworm (Helicoverpa armigera) eggs were purchased from Benzon research laboratory. See the world wide web at benzonresearch.com/insectlist.htm. They were hatched at 25° C. and all the larvae were fed with the artificial diet (Southland Products Incorporated on the world wide web at tecinfo.com/˜southland/. All dishes were kept at 25° C. on a 14-h-day/10-h-night cycle. For the gossypol tolerance experiments, third instars larvae were transferred to the artificial diet supplemented with gossypol (0-4 mg) for 4 d and the increase in weight was recorded.
Gossypol and related sesquiterpene biosynthesized in cotton are toxic to many organisms. However, most Helicoverpa insects resist gossypol because the P450 monooxygenases in the midgut of these insects permit them to tolerate the gossypol. Therefore, in order to suppress P450 gene, two step insect bioassay was conducted. In the first step, third-instar larvae of Helicoverpa armigera were fed on P450: RNAi expressed leaves for four days. Then, all these larvae were transferred to the following diet or leaves: artificial diet with 3 mg/g gossypol or without gossypol; cotton leaves with glands/glandless and wild-type tobacco leaves. Addition of gossypol in the artificial diet or in leaves affects the growth and development of the larvae (FIG. 3). […]

Cc1cc2c(C(C)C)c(O)c(O)c(C=O)c2c(O)c1-c1c(C)cc2c(C(C)C)c(O)c(O)c(C=O)c2c1O [gossypol]
net weight increase of larvae (higher concentrations (3-4 mg/g) of gossypol diet): 15.1 to 55.4 mg
weight increases of larvae (low concentration gossypol diet (1-2 mg/g)): 163 to 190 mg
